What all share (test): NCI anticancer screen, dose series, 48 h
Assay [1] relates to SK-OV-3 ovarian.
Assay [2] relates to MALME-3M melanoma.
Assay [3] has as its system MDA-MB-231 breast.
The test system of assay [4] is MDA-MB-435.
In assay [5] the test system is UACC-62 melanoma.
Assay [6] has as its system OVCAR-4 ovarian.
Assay [7] deals with HCC-2998 colon.
In assay [8] the test system is DU-145 prostate.
Assay [9] relates to NCI-H460 lung.
For assay [10], the system named is TK-10 renal.

Several values for one entry are separate records, joined by “and”; a condition that tells them apart may be missing. Identical values can stand only once.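 Cultured in 96-well plates, cells were exposed to test compound for 48 hours across five concentrations. At the GI50, growth is halved. TGI marks complete inhibition of growth.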

Turning to `CC(C)N(Cc1ccc(CN(C(=O)CCl)C(C)C)cc1)C(=O)CCl`, the GI50 in assay [1] is 1.83 µM; in assay [2] it was 0.186 µM; in assay [3], 2.1 µM; in assay [4] it was 1.7 µM; in assay [5], 1.04 µM; in assay [6], 1.38 µM. The GI50 in assay [7] was 2 µM; in [8] it was 3.23 µM; in [9], 1.98 µM; in assay [10], 2.69 µM. Also, the TGI in assay [1] was determined as 3.35 µM; in assay [2], 0.453 µM; in assay [3], 6.42 µM; in assay [4], 4.9 µM; in [5], 2.97 µM; in [6], 3.63 µM. The TGI in assay [7] stood at 3.94 µM; in assay [8] it was 12.4 µM; in assay [9], 4.74 µM; in [10], 6.64 µM.

For the compound `CC(C)OC(=S)Nc1ccc(Cl)c(/C=N/OC(C)(C)C)c1`, the TGI in assay [1] turned out to be 41.6 µM; in assay [2], 34.2 µM; in assay [3], 31.5 µM; in [4] it was 32.3 µM; in assay [5] it was 30.9 µM; in assay [6] it was 35.3 µM. Also, the TGI in [7] came out at 41.4 µM; in [8] it was 17.6 µM; in [9], 33.1 µM; in assay [10], 17.1 µM.

Turning to `COc1ccc(-c2cncn2-c2cc(OC)c(OC)c(OC)c2)cc1`, the GI50 in assay [1] was 0.256 µM; in assay [2], < 0.0163 µM; in assay [3], 0.465 µM; in [4], 0.0178 µM; in assay [5] it was 0.124 µM; in [6], > 36.3 µM. For the same compound, the GI50 in assay [7] was 0.0779 µM; in assay [8], 0.151 µM; in assay [9], 0.367 µM; in [10], 0.139 µM. Besides, the TGI in [1] was > 86.5 µM; in assay [3], 25.7 µM; in [4], 0.0567 µM; in [5], > 33.7 µM; in [6], > 100 µM; in assay [7], 1.37 µM. Moreover, the TGI in assay [8] is 9.92 µM; in assay [9], > 84.6 µM; in [10] it was 27.1 µM.

On to `COc1ccc(-c2cc3c(C)nc(N)nc3n(C3CCC(OCCO)CC3)c2=O)cn1` (centres undefined), for which the GI50 in assay [1] was 0.044 µM and 0.0814 µM; in assay [2], 0.035 µM and 0.0195 µM; in assay [3], 0.0967 µM and 0.144 µM; in assay [4] it was 0.0985 µM and 0.0842 µM; in assay [5], 0.02 µM and 0.046 µM; in [6] it was 0.14 µM and 0.114 µM. Moreover, the GI50 in assay [7] is 0.0941 µM and 0.13 µM; in assay [8], 0.153 µM and 0.106 µM; in assay [9], 0.0629 µM and 0.0475 µM; in assay [10], 0.026 µM and 0.0264 µM. Also, the TGI is 0.291 µM and 0.527 µM in [1]; 0.263 µM and 0.134 µM in assay [2]; 0.792 µM and 1.13 µM in [3]; 0.941 µM and 0.564 µM in assay [4]; 0.165 µM and 0.365 µM in assay [5]; 2.06 µM and 0.841 µM in assay [6]. The TGI is 1.8 µM and 1.71 µM in [7]; > 10 µM and 8.28 µM in assay [8]; > 35.3 µM in [9]; 0.235 µM and 0.197 µM in [10].

`CN=C1C=CC(=C(c2ccc(N(C)C)cc2)c2ccc(N(C)C)cc2)C=C1`: the GI50 in [1] was 0.261 µM; in assay [2], 0.406 µM; in assay [3] it was 0.267 µM; in assay [4], 0.251 µM; in assay [5], 0.297 µM; in assay [6] it was 0.378 µM. Also, the GI50 in assay [7] was 0.309 µM; in assay [8] it was 0.274 µM; in assay [9], 0.13 µM; in assay [10] it was 0.218 µM. Also, the TGI was 0.828 µM in assay [1]; 1.95 µM in assay [2]; 0.785 µM in assay [3]; 0.66 µM in assay [4]; 1.39 µM in assay [5]; 2.7 µM in assay [6]. Besides, the TGI in assay [7] came out at 1.27 µM; in assay [8], 1.71 µM; in [9] it was 0.909 µM; in assay [10] it was 1.14 µM.

Take `Nc1nc2c(C(=O)NCc3cccs3)nnn2c2cccc(Cl)c12`: the TGI in assay [1], in [2], in [3], in assay [4], in assay [5] and in assay [6] was > 100 µM throughout. For the same compound, the TGI in assay [7], in assay [8], in assay [9] and in [10] was > 100 µM in each case.

On to `CS(=O)(=O)c1ccc(Nc2nc(N[C@H]3CCCC[C@H]3N)nc3cc[nH]c(=O)c23)cc1`, for which the GI50 in assay [1] is 3.17 µM; in [2], 1.73 µM; in assay [3], 2.81 µM; in [4] it was 1.3 µM; in assay [5] it was 1.5 µM; in [6], 1.89 µM. The GI50 in assay [7] is 1.52 µM; in assay [8], 2.03 µM; in assay [9] it was 2.62 µM; in assay [10], 3.19 µM. The TGI in [1] is > 100 µM; in assay [2] it was 4.64 µM; in assay [3] it was 16.3 µM; in assay [4], 3.7 µM; in assay [5], 3.5 µM; in assay [6], 9.81 µM. Moreover, the TGI was 4.49 µM in assay [7], 10.4 µM in assay [8], 11.5 µM in assay [9] and 18.7 µM in assay [10].

With `Cc1cc(C)c(C#N)c(Sc2nc(C)c([N+](=O)[O-])c(C)c2C#N)n1`, the GI50 in assay [1] is 3.76 µM; in assay [2], 2.27 µM; in [3], 4.7 µM; in [4] it was 2.1 µM; in assay [5] it was 2.96 µM; in assay [6], 2.27 µM. The GI50 in [7] is 4.66 µM; in assay [8], 2.95 µM; in assay [9], 3.63 µM; in assay [10], 3.27 µM. For the same compound, the TGI in assay [1] was 27.4 µM; in [2] it was 5.1 µM; in assay [3], 51 µM; in [4], 4.75 µM; in assay [5], 11.5 µM; in assay [6] it was 6.64 µM. The TGI in assay [7] turned out to be 15.8 µM; in [8], 11.1 µM; in [9], 16.2 µM; in [10], 8.28 µM.

Source of the values: PubChem BioAssay (NCI).
